The nature of data set [1]: log P determination by HPLC on reversed-phase column (C18), EEC Directive 79/831 Annex V.A8, acidic (formic acid). Type of data set: physicochemical. To be noted: HPLC method a), acetonitrile/water with formic acid. The procedure: ^1 The stated mass is the peak of the isotope pattern of the [M+H]^+ ion of the highest intensity; if the [M-H]^- ion was detected, the stated mass is identified with ^2. ^2 The stated mass is the peak of the isotope pattern of the [M-H]^- ion of the highest intensity. ^a) Note regarding the determination of the log P values and mass detection: The determination of the given log P values was carried out in accordance with EEC Directive 79/831 Annex V.A8 by HPLC (High Performance Liquid Chromatography) on a reversed-phase column (C18). […] Mass detection is effected by means of an […] system. ^b) Note regarding the determination of the retention time and mass detection: The stated retention times were determined on a reversed-phase column (C18) Shimadzu LCMS 2020; 50*3.0 Shimadzu shim-pack XR-ODS 2.2 micron; mobile phase A: water (0.05% TFA); mobile phase B: acetonitrile; linear gradient from 5% acetonitrile to 95% acetonitrile in 6.00 min, then 95% acetonitrile for a further 1.1 min; oven temperature 40° C.; flow rate: 1.0 ml/min. ^c) Note regarding the determination of the retention time and mass detection: Instrument: Waters ACQUITY SQD UPLC system; column. Waters Acquity UPLC HSS T3 1.8μ 50×1 mm; mobile phase A: 1 l of water+0.25 ml of 99% strength formic acid, mobile phase B: 1 l of acetonitrile+0.25 ml of 99% strength formic acid; gradient: 0.0 min 90% A→1.2 min 5% A→2.0 min 5% A oven: 50° C.; flow rate: 0.40 ml/min; UV detection: 208-400 nm. ^d) Note regarding the determination of the retention time and mass detection: […] The determination of the given log P values was carried out in accordance with EEC Directive 79/831 Annex V.A8 by HPLC (High Performance Liquid Chromatography) on a reversed-phase column (C18). […] Mass detection is effected by means of an […] system.

A further data set concerns Rhipicephalus sanguineus. Put plainly: Rhipicephalus sanguineus in vitro contact test with adult brown dog ticks. The following applies: after 48 h, adult ticks dead or moribund. Type of data set: in vivo. Here is the method: (§1) For the coating of the test tubes, 9 mg of active compound are first dissolved in 1 ml of acetone p.a. and then diluted to the desired concentration with acetone p.a. 250 μl of the solution are distributed homogeneously on the inner walls and the base of a 25 ml test tube by turning and rocking on an orbital shaker (rocking rotation at 30 rpm for 2 h). With 900 ppm active compound solution and internal surface 44.7 cm^2, given homogeneous distribution, an area-based dose of 5 μg/cm^2 is achieved.
After the solvent has evaporated off, the tubes are populated with 5-10 adult dog ticks (Rhipicephalus sanguineus), sealed with a perforated plastic lid and incubated in a horizontal position in the dark at room temperature and ambient humidity. After 48 h, efficacy is determined. To this end, the ticks are knocked to the floor of the tube and incubated on a hotplate at 45-50° C. for not more than 5 min. Ticks which remain motionless on the floor or move in such an uncoordinated manner that they are unable to deliberately avoid the heat by climbing upwards are considered to be dead or moribund.
An efficacy of 100% means that all the ticks were dead or moribund. 0% efficacy means that none of the ticks had been harmed.

The test system of another data set is Boophilus microplus. The experiment in a line: Boophilus microplus injection test. Type of data set: in vivo. To be noted: 20 μg/animal, engorged adult female ticks, after 7 days. The procedure: (§2) Solvent: dimethyl sulphoxide
1 μl of the active compound solution is injected into the abdomen of 5 engorged adult female cattle ticks (Boophilus microplus). The animals are transferred into dishes and kept in a climate-controlled room.
(§3) Efficacy is assessed after 7 days by laying of fertile eggs. Eggs which are not visibly fertile are stored in a climate-controlled cabinet until the larvae hatch after about 42 days. An efficacy of 100% means that none of the ticks has laid any fertile eggs; 0% means that all the eggs are fertile.

For data set [2], the system named is Ctenocephalides felis. The experiment in a line: Ctenocephalides felis oral test. It is filed as in vivo. To be noted: 100 ppm in citrated cattle blood, after 2 days.
From the text: as §2
Dilution with citrated cattle blood gives the desired concentration.
About 20 unfed adult cat fleas (Ctenocephalides felis) are placed into a chamber which is closed at the top and bottom with gauze. A metal cylinder whose bottom end is closed with parafilm is placed onto the chamber. The cylinder contains the blood/active compound preparation, which can be imbibed by the fleas through the parafilm membrane.

In the next data set the test system is Lucilia cuprina. The experiment in a line: Lucilia cuprina test. It is filed as in vivo. The following applies: 100 ppm, L1 larvae, after 2 days. The procedure: as §2
About 20 L1 larvae of the Australian sheep blowfly (Lucilia cuprina) are transferred into a test vessel containing minced horsemeat and the active compound preparation of the desired concentration.
After 2 days, the kill in % is determined.

The next data set has as its system Musca domestica. The experiment in a line: Musca domestica test. It is filed as in vivo. To be noted: 100 ppm, adult houseflies, after 2 days.
From the text: as §2
Vessels containing a sponge treated with sugar solution and the active compound preparation of the desired concentration are populated with 10 adult houseflies (Musca domestica).

The test system of another data set is Spodoptera frugiperda. Put plainly: Spodoptera frugiperda spray test. It is filed as in vivo. The following applies: caterpillars on maize leaf discs, after 7 days. From the text: (§4) Solvent: 78.0 parts by weight of acetone
The test system of the next data set is Phaedon cochleariae. Put plainly: Phaedon cochleariae spray test. To be noted: larvae on Chinese cabbage leaf discs, after 7 days.
Another data set deals with Amblyomma hebraeum. The experiment in a line: Amblyomma hebaraeum test (AMBYHE), tick nymphs immersion. It is filed as in vivo. The following applies: 100 ppm, after 42 days. The procedure:
as §2
To produce a suitable active compound formulation, 10 mg of active compound are mixed with 0.5 ml of dimethyl sulphoxide, and the concentrate is diluted with water to the desired concentration.
Tick nymphs (Amblyomma hebraeum) are placed into perforated plastic beakers and immersed in the desired concentration for one minute. The ticks are transferred on filter paper into a Petri dish and stored in a climate-controlled cabinet.

Data set [3] has as its system cattle ticks (Boophilus microplus) Parkhurst strain, SP-resistant. The experiment in a line: Boophilus microplus dip test. The following applies: 100 ppm, engorged adult female ticks, after 7 days. Type of data set: in vivo. The procedure: Test animals: cattle ticks (Boophilus microplus) Parkhurst strain, SP-resistant
as §2
10 mg of active compound are dissolved in 0.5 ml of dimethyl sulphoxide. For the purpose of producing a suitable formulation, the active compound solution is diluted with water to the concentration desired in each case.
This active compound preparation is pipetted into tubes. 8-10 engorged adult female cattle ticks (Boophilus microplus) are transferred into a further tube with holes. The tube is immersed into the active compound preparation, and all the ticks are completely wetted. After the liquid has run out, the ticks are transferred on filter discs into plastic dishes and stored in a climate-controlled room.
as §3

The next data set relates to Tetranychus urticae. The experiment in a line: Tetranychus urticae spray test, OP-resistant (bean leaf discs). Type of data set: in vivo. To be noted: after 6 days. The procedure:
as §4
(§5) After 6 days, the efficacy in % is determined.

Data set [4] relates to Ctenocephalides felis. The experiment in a line: Ctenocephalides felis in vitro contact test with adult cat fleas. Type of data set: in vivo. To be noted: application rate 5 μg/cm^2 (500 g/ha), after 48 h, adult cat fleas dead or moribund. The procedure:
as §1
After the solvent has evaporated off, the tubes are populated with 5-10 adult cat fleas (Ctenocephalides felis), sealed with a perforated plastic lid and incubated in a horizontal position at room temperature and ambient humidity. After 48 h, efficacy is determined. To this end, the test tubes are stood upright and the fleas are knocked to the base of the tube. Fleas which remain motionless at the base or move in an uncoordinated manner are considered to be dead or moribund.
100% efficacy means that all the fleas were dead or moribund. 0% efficacy means that no fleas were harmed.

Another data set deals with Myzus persicae. Put plainly: Myzus persicae spray test. Type of data set: in vivo. The following applies: 100 g/ha, Chinese cabbage leaf discs, after 6 days. Here is the method: Solvent: 78 parts by weight of acetone
as §5

Setting [5] is: application rate 5 μg/cm^2 (500 g/ha).

Usually logP stands for a log measure of how a compound divides between an organic and an aqueous phase. Broadly, the chromatographic logP is lipophilicity estimated from chromatographic retention. The low end stands for a more hydrophilic compound, the high end for a more lipophilic compound.

With `Cn1nc(C(F)(F)C(F)(F)F)c(C(F)(F)F)c1-c1cc(-c2ccc(Cl)c(C(=O)NCC(F)(F)F)c2)no1` [Iap-2], in [1], the logP is 4.42. In addition, the efficacy in the data set on Rhipicephalus sanguineus (application rate 1 μg/cm^2 (100 g/ha)) worked out at 80%; in the data set on Spodoptera frugiperda (100 g/ha), 100%; in the data set on Phaedon cochleariae (100 g/ha) it was 100%. Further, in the data set with Boophilus microplus, the “efficacy (laying of fertile eggs)” value is 100%. The “efficacy (kill in %)” value in the data set with Ctenocephalides felis [2], in the data set on Lucilia cuprina and in the data set on Musca domestica was 100% each time.

Turning to `Cn1nc(C(F)(F)C(F)(F)F)c(C(F)(F)F)c1-c1coc(-c2ccc(Cl)c(C(=O)NC3CC3)c2)c1` [Iac-3], the logP in [1] was determined as 4.08. Moreover, the “efficacy (kill in %)” value in the data set on Amblyomma hebraeum, in the data set with Ctenocephalides felis [2], in the data set on Lucilia cuprina and with Musca domestica was 100% in each case. Further, the “efficacy (laying of fertile eggs)” value (in [3]; in the data set with Boophilus microplus) was 100% in each case. For the same compound, the efficacy with Spodoptera frugiperda (100 g/ha), in the data set with Tetranychus urticae (100 g/ha) and in the data set with Phaedon cochleariae (100 g/ha) was 100% each time.

`Cn1nc(C(F)(F)C(F)(F)F)c(C(F)(F)F)c1-c1nc(-c2ccc(Cl)c(C(=O)NC3(C#N)CC3)c2)no1` [Ibf-2]: the logP in [1] is on record as 4.14. Further, the figures for the efficacy in the data set on Rhipicephalus sanguineus (setting [5]), in the data set with Spodoptera frugiperda (500 g/ha) and in the data set with Phaedon cochleariae (500 g/ha) were 80%, 100% and 100%, respectively. In the data set on Boophilus microplus, the “efficacy (laying of fertile eggs)” value turned out to be 100%. The “efficacy (kill in %)” value in the data set with Ctenocephalides felis [2], in the data set with Lucilia cuprina and with Musca domestica was 100% throughout.

`Cn1nc(C(F)(F)C(F)(F)F)c(C(F)(F)F)c1-c1noc(-c2ccc(Cl)c(C(=O)NC3(C#N)CC3)c2)n1` [Ibe-4] showed a logP in data set [1] of 4.01. In addition, the “efficacy (laying of fertile eggs)” value in the data set with Boophilus microplus is 100%. Also, the “efficacy (kill in %)” value in the data set on Ctenocephalides felis [2], in the data set on Lucilia cuprina and with Musca domestica was 100% throughout. Further, the efficacy in the data set with Spodoptera frugiperda (500 g/ha) worked out at 100%; with Tetranychus urticae (500 g/ha), 90%; in the data set on Phaedon cochleariae (500 g/ha) it was 100%.

In data set [1], `Cn1nc(C(F)(F)C(F)(F)F)c(C(F)(F)F)c1-c1cc(-c2ccc(Cl)c(C(=O)NC3(C#N)CC3)c2)no1` [Iap-3] displayed a logP of 3.96. In addition, the efficacy in the data set with Ctenocephalides felis [4], in the data set with Rhipicephalus sanguineus (setting [5]), with Spodoptera frugiperda (100 g/ha), in the data set with Tetranychus urticae (100 g/ha) and in the data set on Phaedon cochleariae (100 g/ha) was 100% each time. In the data set on Boophilus microplus, the “efficacy (laying of fertile eggs)” value is 100%. Moreover, the “efficacy (kill in %)” value in the data set on Ctenocephalides felis [2], in the data set on Lucilia cuprina and in the data set on Musca domestica was 100% in each case.

In the case of `Cn1nc(C(F)(F)C(F)(F)F)c(C(F)(F)F)c1-c1coc(-c2ccc(Cl)c(C(=O)NC3(C#N)CC3)c2)c1` [Iac-1, 2-chloro-N-(1-cyanocyclopropyl)-5-{4-[1-methyl-3-(pentafluoroethyl)-4-(trifluoromethyl)-1H-pyrazol-5-yl]-2-furyl}benzamide], the chromatographic logP in data set [1] was 4.02. Further, the efficacy in the data set with Ctenocephalides felis [4], in the data set on Spodoptera frugiperda (100 g/ha), in the data set with Tetranychus urticae (100 g/ha) and with Phaedon cochleariae (100 g/ha) was 100% in each case. Besides, the “efficacy (kill in %)” value in the data set on Amblyomma hebraeum, in the data set on Ctenocephalides felis [2], in the data set on Lucilia cuprina and in the data set on Musca domestica was 100% each time. For the same compound, the “efficacy (laying of fertile eggs)” value (in [3]; with Boophilus microplus) was 100% each time.

With `Cn1nc(C(F)(F)C(F)(F)F)c(C(F)(F)F)c1-c1csc(-c2ccc(Cl)c(C(=O)NC3CC3)c2)c1` [Iaf-1], the logP in data set [1] is reported as 4.31. In addition, the efficacy with Ctenocephalides felis [4] is 100%; with Rhipicephalus sanguineus (setting [5]), 100%; in the data set with Myzus persicae, 90%; in the data set on Spodoptera frugiperda (100 g/ha), 100%; in the data set on Tetranychus urticae (100 g/ha), 100%; in the data set on Phaedon cochleariae (100 g/ha) it was 100%. The “efficacy (kill in %)” value with Amblyomma hebraeum, with Ctenocephalides felis [2] and with Lucilia cuprina was 100% in each case. In addition, the “efficacy (laying of fertile eggs)” value (in data set [3]; in the data set with Boophilus microplus) was 100% each time.

As to `Cn1nc(C(F)(F)C(F)(F)F)c(C(F)(F)F)c1-c1cc(-c2ccc(Cl)c(C(=O)NC3CSC3)c2)no1` [Iap-4], in data set [1], the log partition coefficient (logP) is given as 4.37. For the same compound, the efficacy with Rhipicephalus sanguineus (setting [5]) came to 100%; with Spodoptera frugiperda (500 g/ha), 80%; in the data set with Tetranychus urticae (500 g/ha), 90%; with Phaedon cochleariae (500 g/ha), 100%. Further, the “efficacy (laying of fertile eggs)” value in the data set on Boophilus microplus stood at 100%. Further, the “efficacy (kill in %)” value in the data set on Ctenocephalides felis [2] and with Lucilia cuprina was 100% throughout.
